Laboratory results reported in patent publication US10765114B2, “4-amino-6-(pyridyl and 2-substitutedphenyl)-picolinates and 6-amino-2-(pyridyl and 2-substitutedphenyl)-pyrimidine-4-carboxylates and their use as herbicides” (Dow AgroSciences LLC, priority 2013, dated 2020).
Read-outs that look alike come from different tables or passages of the source.

What was measured:
[1] = test system: Key Grass and Sedge Weeds as well as Grass Crops; assay: Post-Emergent Test II (Table 6); type: in vivo; conditions: post-emergence, 336 h, 14 days after application; for pest or weed control at 70 g/ha: 70 g ai/ha; for pest or weed control at 140 g/ha: 140 g ai/ha
Summary of the method: (§1)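 Post-emergence greenhouse spray, 1st-2nd true leaf stage; track sprayer, 187 L/ha; acetone/DMSO stock diluted in aqueous acetone/IPA/DMSO with Atplus 411F and Triton X-155; rates 1× to 1/16×; subirrigated; visual injury 0 (none) to 100% (complete kill) at 14 days.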

[2] = test system: Key Broadleaf Weed and Crop Species; assay: Post-Emergent Test II (Table 5); type: in vivo; conditions: post-emergence, 336 h; for pest or weed control at 70 g/ha: application rate 70 (kg ai/ha; footnote: g ai/ha); for pest or weed control at 140 g/ha: application rate 140 (kg ai/ha; footnote: g ai/ha)
Summary of the method: as §1

[3] = CYPSS, read-out: Visual Growth Reduction (%) 14 Days After Application CYPSS
[4] = DIGSA: crabgrass (Digitaria sanguinalis), read-out: Visual Growth Reduction (%) 14 Days After Application DIGSA
[5] = ECHSS, read-out: Visual Growth Reduction (%) 14 Days After Application ECHSS
[6] = ORYSS (crop), read-out: Visual Growth Reduction (%) 14 Days After Application ORYSS
[7] = SETFA: giant foxtail (Setaria faberi), read-out: Visual Growth Reduction (%) 14 Days After Application SETFA
[8] = SORVU: grain sorghum (Sorghum vulgare), read-out: Visual Growth Reduction (%) 14 Days After Application SORVU
[9] = TRZSS (crop), read-out: Visual Growth Reduction (%) 14 Days After Application TRZSS
[10] = ZEAMX: maize, corn (Zea mays), read-out: Visual Growth Reduction (%) 14 Days After Application ZEAMX
[11] = Abutilon theophrasti, ABUTH: velvetleaf (Abutilon theophrasti), read-out: Visual Growth Reduction (%) 14 Days After Application ABUTH
[12] = Amaranthus retroflexus, AMARE: redroot pigweed (Amaranthus retroflexus), read-out: Visual Growth Reduction (%) 14 Days After Application AMARE
[13] = Brassica napus, BRSSS: oilseed rape, canola (Brassica napus), read-out: Visual Growth Reduction (%) 14 Days After Application BRSSS
[14] = Chenopodium album, CHEAL: lambsquarters (Chenopodium album), read-out: Visual Growth Reduction (%) 14 Days After Application CHEAL
[15] = Euphorbia heterophylla, EPHHL: wild poinsettia (Euphorbia heterophylla), read-out: Visual Growth Reduction (%) 14 Days After Application EPHHL
[16] = Helianthus annuus, HELAN: sunflower (Helianthus annuus), read-out: Visual Growth Reduction (%) 14 Days After Application HELAN
[17] = Viola tricolor, VIOTR: wild pansy (Viola tricolor), read-out: Visual Growth Reduction (%) 14 Days After Application VIOTR

SMILES | pest or weed control at 70 g/ha [1, 3] | pest or weed control at 140 g/ha [1, 3] | pest or weed control at 70 g/ha [1, 4] | pest or weed control at 140 g/ha [1, 4] | pest or weed control at 70 g/ha [1, 5] | pest or weed control at 140 g/ha [1, 5] | pest or weed control at 70 g/ha [1, 6] | pest or weed control at 140 g/ha [1, 6] | pest or weed control at 70 g/ha [1, 7] | pest or weed control at 140 g/ha [1, 7] | pest or weed control at 70 g/ha [1, 8] | pest or weed control at 140 g/ha [1, 8] | pest or weed control at 70 g/ha [1, 9] | pest or weed control at 140 g/ha [1, 9] | pest or weed control at 70 g/ha [1, 10] | pest or weed control at 140 g/ha [1, 10] | pest or weed control at 70 g/ha [2, 11] | pest or weed control at 140 g/ha [2, 11] | pest or weed control at 70 g/ha [2, 12] | pest or weed control at 140 g/ha [2, 12] | further results
COc1nc(C(F)(F)F)ccc1-c1nc(C(=O)O)c(Cl)c(N)c1F [Compound 2, 4-amino-5-chloro-3-fluoro-2′-methoxy-6′-(trifluoromethyl)-[2,3′-bipyridine]-6-carboxylic acid] | 0 to 29% | 0 to 29% | 0 to 29% | 0 to 29% | 0 to 29% | 0 to 29% | 0 to 29% | 0 to 29% | 0 to 29% | 0 to 29% | 0 to 29% | 0 to 29% | 0 to 29% | 0 to 29% | 0 to 29% | 0 to 29% | 0 to 29% | 0 to 29% | 0 to 29% | 0 to 29% | pest or weed control at 70 g/ha [2, 13]: 30 to 44%; pest or weed control at 140 g/ha [2, 13]: 45 to 59%; pest or weed control at 70 g/ha [2, 14]: 0 to 29%; pest or weed control at 140 g/ha [2, 14]: 0 to 29%; pest or weed control at 70 g/ha [2, 15]: 0 to 29%; pest or weed control at 140 g/ha [2, 15]: 0 to 29%; pest or weed control at 70 g/ha [2, 16]: 60 to 74%; pest or weed control at 140 g/ha [2, 16]: 60 to 74%; pest or weed control at 70 g/ha [2, 17]: 0 to 29%; pest or weed control at 140 g/ha [2, 17]: 0 to 29%; melting point: 133 to 134 °C
CCc1c(-c2cc(N)c(Cl)c(C(=O)O)n2)ccc(Cl)c1F [Compound 86] | 0 to 29% | 0 to 29% | 0 to 29% | 0 to 29% | 0 to 29% | 0 to 29% | 0 to 29% | 0 to 29% | 0 to 29% | 0 to 29% | 0 to 29% | 0 to 29% | 0 to 29% | 0 to 29% | 0 to 29% | 0 to 29% | 45 to 59% | 0 to 29% | 85 to 94% | 85 to 94% | pest or weed control at 70 g/ha [2, 13]: 75 to 84%; pest or weed control at 140 g/ha [2, 13]: 85 to 94%; pest or weed control at 70 g/ha [2, 14]: 85 to 94%; pest or weed control at 140 g/ha [2, 14]: 85 to 94%; pest or weed control at 70 g/ha [2, 15]: 0 to 29%; pest or weed control at 140 g/ha [2, 15]: 0 to 29%; pest or weed control at 70 g/ha [2, 16]: 75 to 84%; pest or weed control at 140 g/ha [2, 16]: 75 to 84%; pest or weed control at 70 g/ha [2, 17]: 0 to 29%; pest or weed control at 140 g/ha [2, 17]: 0 to 29%; melting point: 144 to 146 °C
COC(=O)c1nc(-c2ccc(C3CC3)nc2)c(F)c(N)c1Cl [Compound 49] | 95 to 100% | 95 to 100% | 75 to 84% | 75 to 84% | 95 to 100% | 95 to 100% | 30 to 44% | 30 to 44% | 85 to 94% | 85 to 94% | 85 to 94% | 85 to 94% | 45 to 59% | 45 to 59% | 95 to 100% | 95 to 100% | 95 to 100% | 95 to 100% | 95 to 100% | 95 to 100% | pest or weed control at 70 g/ha [2, 13]: 75 to 84%; pest or weed control at 140 g/ha [2, 13]: 75 to 84%; pest or weed control at 70 g/ha [2, 14]: 95 to 100%; pest or weed control at 140 g/ha [2, 14]: 95 to 100%; pest or weed control at 70 g/ha [2, 15]: 95 to 100%; pest or weed control at 140 g/ha [2, 15]: 95 to 100%; pest or weed control at 70 g/ha [2, 16]: 95 to 100%; pest or weed control at 140 g/ha [2, 16]: 95 to 100%; pest or weed control at 70 g/ha [2, 17]: 30 to 44%; pest or weed control at 140 g/ha [2, 17]: 45 to 59%; melting point: 124 to 126 °C
COC(=O)c1nc(-c2c(F)cc(Cl)c(F)c2C)cc(N)c1Cl [Compound 38, methyl 4-amino-3-chloro-6-(4-chloro-3,6-difluoro-2-methylphenyl)picolinate] | 0 to 29% | 0 to 29% | 0 to 29% | 0 to 29% | 0 to 29% | 0 to 29% | 0 to 29% | 0 to 29% | 0 to 29% | 0 to 29% | 0 to 29% | 0 to 29% | 45 to 59% | 60 to 74% | 0 to 29% | 0 to 29% | 95 to 100% | 95 to 100% | 95 to 100% | 95 to 100% | pest or weed control at 70 g/ha [2, 13]: 95 to 100%; pest or weed control at 140 g/ha [2, 13]: 95 to 100%; pest or weed control at 70 g/ha [2, 14]: 85 to 94%; pest or weed control at 140 g/ha [2, 14]: 95 to 100%; pest or weed control at 70 g/ha [2, 15]: 30 to 44%; pest or weed control at 140 g/ha [2, 15]: 45 to 59%; pest or weed control at 70 g/ha [2, 16]: 75 to 84%; pest or weed control at 140 g/ha [2, 16]: 95 to 100%; pest or weed control at 70 g/ha [2, 17]: 75 to 84%; pest or weed control at 140 g/ha [2, 17]: 85 to 94%; melting point: 144 to 146 °C
